Holding throughout (type): cell-based
Assay [1] deals with Pseudomonas aeruginosa culture. The assay is described as follows: Optical third-derivative MIC method, culture in broth. As to conditions: for MIC: Pseudomonas aeruginosa. The source says:
(§1) The method of FIG. 1 starts at a time equal to zero, t0 (1). Preferably, said t0 is the moment a pure bacteria culture is finished being prepared. Alternatively, said t0 is the moment all wells contain both said bacteria culture and said antimicrobial drug. After the starting of the experiment each well is periodically illuminated with a light source and the intensity of the transmitted light is detected with a photodetector (2). Preferably, each well is illuminated and the intensity of the transmitted light is detected every hour (2). More preferably, each well is illuminated and the intensity of the transmitted light is detected every 5 to 15 min. After a predetermined time length, preferably after 4 hours, a first, a second and a third derivative of said measured intensity is calculated (3) in a first and a second time frame for each well. Preferably, said second time frame is the last measured time frame after the test has been running for said predetermined time length, and said first time frame is the time frame preceding the second time frame. More preferably, said first time frame is between two and three hours and said second time frame is between three and four hours. After the calculation of said derivatives, said first derivative in said second time frame of said reference well is compared to a growth speed threshold value (4). Preferably, said growth speed threshold value is 0.166 (4). If said first derivative in said second time frame of said reference well is larger than or equal to said growth speed threshold value said bacteria culture is classified as Type I (4). If said first derivative in said second time frame of said reference well is smaller than said growth speed threshold value said bacteria culture is classified as Type II (4). Subsequently, independent of the classification of the bacteria culture according to the two types, the method comprises the following steps which are performed for each well or for all wells except said reference well. Both said first and said second time frames are evaluated to see if there is an inflection point present in the second derivative in said first and/or said second time frame (5).
(§2) If said first and/or said second time frame comprise said inflection point than said third derivative in said first time frame is compared to said third derivative in said second time frame (6). If said third derivative in said first time frame is larger than said third derivative in said second time frame, then said first time frame and said second time frame are selected as a first and second time frame to be used in a minimal inhibitory concentration determination method (10). If said third derivative in said first time frame is not larger than said third derivative in said second time frame, then said well is illuminated again after a certain time period, preferably an hour, more preferably 5 to 15 min after said predetermined time length said, with a light source and the intensity of the transmitted light is detected with a photodetector forming a new time frame subsequent to said second time frame (7). A third derivative, and possibly also a first and/or a second derivative, is calculated in said new time frame (7). Further, in step (7) a new first time frame is put equal to said second time frame and a new second time frame to equal to said new time frame. Subsequently, said third derivative in said new first time frame is compared to said third derivative in said new second time frame (8). If said derivative in said new first time frame is larger than said third derivative in said new second time frame, then said new first time frame and said new second time frame are selected as a first and second time frame to be used in a minimal inhibitory concentration determination method (10). […]

In assay [2] the test system is Pseudomonas aeruginosa culture. The assay is described as follows: Broth microdilution (BMD). In general terms: Dilution methods test growth across graded concentrations, often in twofold steps.
Assay [3] relates to Streptococcus Pneumoniae. The assay is described as follows: Optical third-derivative MIC method (MICSTRIP), broth + horse blood. As to conditions: for MICSTRIP (MIC): broth + horse blood.
From the text: as §1, §2

In assay [4] the test system is Streptococcus Pneumoniae. Description: E-test, broth + horse blood trial. The protocol:
Tables 14 and 15 show the results of experiment whereby a bacteria culture is grown in blood instead of broth. The experiments of Table 14 were conducted by illuminating the light-transmissive wells with a light having a wavelength of 635 nm. The experiments of Table 15 were conducted by illuminating the light-transmissive wells with a light having a wavelength of 650 nm. […] The determination of the best wavelength may or may not be based on the commercial availability of the spectral line. The choice of the optimal wavelength may or may not be determined by calculating the absorbance for various wavelengths. The choice of the optimal wavelength can also be based on the combination of the comparison with the other two methods, the commercial availability and on the calculation of the absorbance for various wavelengths.

Assay [5] relates to Streptococcus Pneumoniae. Description: BMD, broth + horse blood trial.
Assay [6] relates to Pseudomonas aeruginosa culture. Description: E-test. As to conditions: culture PA/2472.

Each structure is given as a SMILES string. In brackets after ≈: the same amount, converted by molar mass. Where only a bound is given, the exact number is not on record here.

The term MIC denotes the smallest concentration in the dilution series that meets the test's criterion for growth inhibition.

For the molecule `CO/N=C(\C(=O)N[C@@H]1C(=O)N2C(C(=O)[O-])=C(C[N+]3(C)CCCC3)CS[C@H]12)c1csc(N)n1` [cefepime], the MIC was found to be 8 µg/mL (≈ 16.6 µM) in assay [1] (PA/2467, 5 h-6 h, only time frame, omitted from determination (Type II), read-out: MIC (25%)); 8 µg/mL (≈ 16.6 µM) in assay [1] (PA/2467, 5 h-6 h, only time frame, read-out: MIC (40%)); 4 µg/mL (≈ 8.32 µM) in assay [1] (PA/2467, 5 h-6 h, only time frame, read-out: MIC (60%)); 4 µg/mL (≈ 8.32 µM) in assay [1] (PA/2467, 5 h-6 h, only time frame, read-out: MIC (75%)); 8 µg/mL (≈ 16.6 µM) in assay [1] (PA/2467, FIG. 5F, overall conclusion, read-out: MIC value determined by the method); 16 µg/mL (≈ 33.3 µM) in assay [2] (culture PA/2467).
Consider `CC1(C)S[C@@H]2[C@H](NC(=O)Cc3ccccc3)C(=O)N2[C@H]1C(=O)O` [Benzyl-penicilline], for which the MICSTRIP (MIC) with Streptococcus Pneumoniae [3] (strain 2532, 635 nm) was 0.016 µg/mL; with Streptococcus Pneumoniae [3] (strain 2532, 650 nm), 0.016 µg/mL; in the assay on Streptococcus Pneumoniae [3] (strain 2543, 635 nm), 1 µg/mL; with Streptococcus Pneumoniae [3] (strain 2543, 650 nm) it was 1 µg/mL; with Streptococcus Pneumoniae [3] (strain 2544, 635 nm), 0.256 µg/mL; with Streptococcus Pneumoniae [3] (strain 2544, 650 nm), 0.256 µg/mL. The MICSTRIP (MIC) in the assay on Streptococcus Pneumoniae [3] (strain ATCC 49619, 635 nm) was 0.256 µg/mL; in the assay with Streptococcus Pneumoniae [3] (strain ATCC 49619, 650 nm), 0.256 µg/mL. Further, the “HR MICSTRIP” value is “no (If the ratio of the MIC value in the second time frame over the MIC value in the first time frame is lower than or equal to 4 then the ratio is labelled not to be heteroresistant)” in the assay with Streptococcus Pneumoniae [3] (strain 2543, 635 nm); “no (If the ratio of the MIC value in the second time frame over the MIC value in the first time frame is lower than or equal to 4 then the ratio is labelled not to be heteroresistant)” in the assay on Streptococcus Pneumoniae [3] (strain 2543, 650 nm); “no (If the ratio of the MIC value in the second time frame over the MIC value in the first time frame is lower than or equal to 4 then the ratio is labelled not to be heteroresistant)” in the assay with Streptococcus Pneumoniae [3] (strain ATCC 49619, 635 nm); “no (If the ratio of the MIC value in the second time frame over the MIC value in the first time frame is lower than or equal to 4 then the ratio is labelled not to be heteroresistant)” with Streptococcus Pneumoniae [3] (strain ATCC 49619, 650 nm). The “HR E-test” value in the assay on Streptococcus Pneumoniae [4] (strain 2532), in the assay with Streptococcus Pneumoniae [4] (strain 2543), in the assay with Streptococcus Pneumoniae [4] (strain 2544) and in the assay on Streptococcus Pneumoniae [4] (strain ATCC 49619) was “no” throughout. Moreover, the E-test (MIC) in the assay with Streptococcus Pneumoniae [4] (strain 2543) amounted to 1.5 µg/mL; with Streptococcus Pneumoniae [4] (strain 2544), 0.1 µg/mL; in the assay with Streptococcus Pneumoniae [4] (strain ATCC 49619), 0.25 µg/mL. In addition, the BMD (MIC) was 0.016 µg/mL in the assay on Streptococcus Pneumoniae [5] (strain 2532), 2 µg/mL with Streptococcus Pneumoniae [5] (strain 2543), 0.256 µg/mL with Streptococcus Pneumoniae [5] (strain 2544) and 0.256 µg/mL in the assay on Streptococcus Pneumoniae [5] (strain ATCC 49619).
On to `CC(C)(O/N=C(\C(=O)N[C@@H]1C(=O)N2C(C(=O)[O-])=C(C[n+]3ccccc3)CS[C@H]12)c1csc(N)n1)C(=O)O` [ceftazidime], for which the MIC in assay [6] (Pseudomonas aeruginosa) worked out at 32 µg/mL (≈ 58.5 µM); in assay [1] (PA/2472, 3 h-4 h, omitted from determination (Type II), read-out: MIC (25%) T1), 64 µg/mL (≈ 117 µM); in assay [1] (PA/2472, 3 h-4 h, read-out: MIC (40%) T1) it was 32 µg/mL (≈ 58.5 µM); in assay [1] (PA/2472, 3 h-4 h, read-out: MIC (60%) T1) it was 32 µg/mL (≈ 58.5 µM); in assay [1] (PA/2472, 3 h-4 h, read-out: MIC (75%) T1), 32 µg/mL (≈ 58.5 µM); in assay [1] (PA/2472, 5 h-6 h, omitted from determination (Type II), read-out: MIC (25%) T2) it was 64 µg/mL (≈ 117 µM). Also, the MIC in assay [1] (PA/2472, 5 h-6 h, read-out: MIC (40%) T2) worked out at 32 µg/mL (≈ 58.5 µM); in assay [1] (PA/2472, 5 h-6 h, read-out: MIC (60%) T2), 32 µg/mL (≈ 58.5 µM); in assay [1] (PA/2472, 5 h-6 h, read-out: MIC (75%) T2), 32 µg/mL (≈ 58.5 µM); in assay [1] (PA/2472, FIG. 5E, overall conclusion, read-out: MIC value determined by the method) it was 32 µg/mL (≈ 58.5 µM); in assay [2] (culture PA/2472), 32 µg/mL (≈ 58.5 µM). The “HR? (E-test)” value in assay [6] was “no”. In addition, the “heteroresistance determined by the method” value in assay [1] (PA/2472, FIG. 5E, overall conclusion) is on record as “not heteroresistant”. The “HR? at MIC (40%)” value in assay [1] (PA/2472, ratio MIC T2/T1) is “no (If the ratio of the MIC value in the second time frame over the MIC value in the first time frame is lower than or equal to 4 then the ratio is labelled not to be heteroresistant)”. Besides, the “HR? at MIC (60%)” value in assay [1] (PA/2472, ratio MIC T2/T1) is reported as “no (If the ratio of the MIC value in the second time frame over the MIC value in the first time frame is lower than or equal to 4 then the ratio is labelled not to be heteroresistant)”. For the same molecule, the “HR? at MIC (75%)” value in assay [1] (PA/2472, ratio MIC T2/T1) is on record as “no (If the ratio of the MIC value in the second time frame over the MIC value in the first time frame is lower than or equal to 4 then the ratio is labelled not to be heteroresistant)”. Also, the “HR? at MIC (25%)” value in assay [1] (PA/2472, ratio MIC T2/T1, omitted (Type II)) is “no (If the ratio of the MIC value in the second time frame over the MIC value in the first time frame is lower than or equal to 4 then the ratio is labelled not to be heteroresistant)”.
In the case of `CO/N=C(\C(=O)N[C@@H]1C(=O)N2C(C(=O)O)=C(CSc3nc(=O)c(=O)[nH]n3C)CS[C@H]12)c1csc(N)n1` [Ceftriaxone], the MICSTRIP (MIC) with Streptococcus Pneumoniae [3] (strain 2532, 635 nm) is 0.016 µg/mL; with Streptococcus Pneumoniae [3] (strain 2532, 650 nm), 0.016 µg/mL; with Streptococcus Pneumoniae [3] (strain 2543, 635 nm), 0.256 µg/mL; in the assay with Streptococcus Pneumoniae [3] (strain 2543, 650 nm), 0.256 µg/mL; in the assay on Streptococcus Pneumoniae [3] (strain 2544, 635 nm), 0.064 µg/mL; in the assay on Streptococcus Pneumoniae [3] (strain 2544, 650 nm), 0.064 µg/mL. The MICSTRIP (MIC) was 0.032 µg/mL with Streptococcus Pneumoniae [3] (strain ATCC 49619, 635 nm) and greater than 16 µg/mL in the assay with Streptococcus Pneumoniae [3] (strain ATCC 49619, 650 nm). The “HR MICSTRIP” value in the assay with Streptococcus Pneumoniae [3] (strain ATCC 49619, 650 nm) is reported as “no (If the ratio of the MIC value in the second time frame over the MIC value in the first time frame is lower than or equal to 4 then the ratio is labelled not to be heteroresistant)”. Besides, the E-test (MIC) is no more than 0.16 µg/mL in the assay with Streptococcus Pneumoniae [4] (strain 2532), 0.125 µg/mL with Streptococcus Pneumoniae [4] (strain 2543), 0.024 µg/mL with Streptococcus Pneumoniae [4] (strain 2544) and 0.047 µg/mL in the assay with Streptococcus Pneumoniae [4] (strain ATCC 49619). Further, the “HR E-test” value with Streptococcus Pneumoniae [4] (strain 2532), in the assay on Streptococcus Pneumoniae [4] (strain 2543), with Streptococcus Pneumoniae [4] (strain 2544) and with Streptococcus Pneumoniae [4] (strain ATCC 49619) was “no” in each case. Besides, the BMD (MIC) was determined as 0.008 µg/mL in the assay on Streptococcus Pneumoniae [5] (strain 2532), 0.256 µg/mL in the assay on Streptococcus Pneumoniae [5] (strain 2543), 0.064 µg/mL with Streptococcus Pneumoniae [5] (strain 2544) and 0.064 µg/mL in the assay with Streptococcus Pneumoniae [5] (strain ATCC 49619).

Values taken from patent publication US20220389477A1, “METHOD FOR EVALUATING ANTIBIOTIC SUSCEPTIBILITY” (Vrije Universiteit Brussel, priority 2019, published 2022).
